Test results from patent US9102932B2, “Orthogonal translation components for the in vivo incorporation of unnatural amino acids” (The Scripps Research Institute, priority 2004, dated 2015).

Experiments:
[1] = Photodecaging of O-(2-nitrobenzyl)-L-tyrosine by irradiation at 365 nm, LC/MS; assay type: physicochemical
Method: FIG. 9 provides concentration curve assays illustrating the experimentally observed photodecaging (photoactivation) of the caged tyrosine molecule O-(2-nitrobenzyl)-L-tyrosine. Photodecaging of O-(2-nitrobenzyl)-L-tyrosine was illustrated by irradiation of a 0.2 mM amino acid solution in water using a handheld UV lamp (365 nm at 10 mm distance). Aliquots were taken at specific time points and analyzed by LC/MS. The concentrations of O-(2-nitrobenzyl)-L-tyrosine (squares) and the corresponding decaged species (circles) are shown.
Irradiation of O-(2-nitrobenzyl)-L-tyrosine (synthesized from L-tyrosine as described in Miller et al., Neuron 1998, 20, 619) at 365 nm induces cleavage of the benzylic CO-bond and rapid formation of the decaged amino acid (t1/2=4 min, see supporting information), as illustrated schematically in FIG. 8.
Photodecaging of O-(2-nitrobenzyl)-L-tyrosine can be experimentally observed, as illustrated in the experimental results shown in FIG. 9. As shown in this figure, the photodecaging of O-(2-nitrobenzyl)-L-tyrosine was studied by irradiation of a 0.2 mM solution in water (one well of a six-well plate) using a handheld UV lamp (365 nm at 10 mm distance). Aliquots were taken at specific time points and analyzed by LC/MS. 50% decaging was achieved after approximately four minutes.

[2] = system: Z domain protein gene with amber codon at seventh position; test: Expression of amber mutant Z domain protein with unnatural amino acid, SDS-PAGE and MALDI-TOF MS; assay type: cell-based, E. coli
Method: To confirm that the observed phenotype is caused by the site-specific incorporation of p-ethylthiocarbonyl-L-phenylalanine by the mutRNACUA-mutTyrRS pair, an amber codon was substituted for the seventh position (Tyr) in the gene encoding the Z domain protein (Nilsson et al., Protein Eng. 1987, 1, 107-113) fused to a C-terminal His6 tag. Protein was expressed in the presence or absence of 1 mM p-ethylthiocarbonyl-L-phenylalanine and purified by Ni-NTA chromatography. […]
Additional evidence for the site specific incorporation of p-ethylthiocarbonyl-L-phenylalanine was obtained by matrix-assisted laser desorption/ionization time-of-flight mass spectrometry (MALDI-TOF MS). In addition to the observation of an experimental average mass of 8006 Da for the intact Tyr p-ethylthiocarbonyl-L-phenylalanine protein (MTheoretical=8002 Da, see, FIG. 16), a minor peak corresponding to the mutant protein without the first methionine moiety in acetylated form (MExperimental=7913 Da vs. MTheoretical=7913 Da) and a major peak corresponding to the mutant protein without the first methionine moiety (MExperimental=7871 Da vs. MTheoretical=7871 Da) were also detected (FIG. 16). Another major peak of 7828 Da was present that corresponds to Z domain protein containing a free carboxylic acid group instead of a thioester moiety at position 7, which has a calculated mass of 7827 Da in its protonated form. […]

[3] = system: human superoxide dismutase bearing amber codon at position 33 (hSOD-33TAG-His6); test: Expression of hSOD-33TAG-His6 in yeast with mutant E. coli leucyl-tRNA synthetases, SDS-PAGE; assay type: cell-based; conditions: yeast host cells
Excerpt: To increase hydrolytic activity towards leucine, residues T252 and V338 in the E. coli synthetase editing domain were exchanged to alanine by Quikchange mutagenesis in order to enlarge the binding pocket (see, FIG. 6A). […] High selectivity of this mutant was further confirmed by MALDI TOF MS of hSOD-33TAG-His6.
To evolve a more efficient oNBS translation system, the selected clone 3H11 synthetase was diversified by error prone PCR, again using three different mutagenicities, to introduce one, two or five mutations per gene, yielding an overall diversity of 1×10^7 clones. The positions in the leucyl-tRNA-synthetase enzyme that were targeted for randomization were M40, L41, Y499, Y527 and H537. The protocols used herein follow the general methodologies described in the art, e.g., Wu et al., Journal of the American Chemical Society 126:14306-14307 (2004); and International Application No. PCT/US 2005/034002, filed Sep. 21, 2005, by Deiters et al.
Sequencing of the G2-6 clone identified five additional mutations throughout the enzyme in comparison to the initial 3H11 synthetase starting material (positions S31G, T247A, T248S, M617I and V673A). Additional mutations (caused during library construction) found in all clones throughout the library were also observed as follows: H67R, N196T, R262A and S497C. […]

N[C@@H](Cc1ccc(OCc2ccccc2[N+](=O)[O-])cc1)C(=O)O [O-(2-nitrobenzyl)-L-tyrosine]
Decaging ([1]; after approximately four minutes, 0.2 mM solution in water, handheld UV lamp 365 nm at 10 mm distance): 50% | half-life at 0.2 mM ([1]; solution in water under UV irradiation (365 nm), irradiation at 365 nm, read-out: t1/2 of formation of the decaged amino acid): 4 min

CC(=O)CC(=O)c1ccc(C[C@H](N)C(=O)O)cc1 [p-(3-oxobutanoyl)-L-phenylalanine]
Fidelity for the incorporation ([2]; MALDI-TOF MS, signal-to-noise ratio >400, evolved mutRNACUA^Tyr-mutTyrRS pair): > 99% | Incorporation efficiency compared to tyrosine ([2]; Z domain protein, seventh position, 1 mM unnatural amino acid, SDS-PAGE): around 30%

B1: clone 3H11 (protein)
chain: MEEQYRPEEIESKVQLHWDEKRTFEVTEDESKEKYYCLSWSPYPSGRLHMGHVRNYTIGDVIARYQRMLGKNVLQPIGWDAFGLPAEGAAVKNNTAPAPWTYDNIAYMKNQLKMLGFGYDWSRELATCTPEYYRWEQKFFTELYKKGLVYKKTSAVNWCPNDQTVLANEQVIDGCCWRCDTKVERKEIPQWFIKITAYADELLNDLDKLDHWPDTVKTMQRNWIGRSEGVEITFNVNDYDNTLTVYTTRPDTFMGCTYLAVAAGHPLAQKAAENNPELAAFIDECRNTKVAEAEMATMEKKGVDTGFKAVHPLTGEEIPVWAANFVLMEYGTGAVMAVPGHDQRDYEFASKYGLNIKPVILAADGSEPDLSQQALTEKGVLFNSGEFNGLDHEAAFNAIADKLTAMGVGERKVNYRLRDWGVSRQRYWGAPIPMVTLEDGTVMPTPDDQLPVILPEDVVMDGITSPIKADPEWAKTTVNGMPALRETDTFDTFMESCWIYARYTCPQYKEGMLDSEAANYWLPVDIAIGGIEHAIMGLLYFRFFHKLMRDAGMVNSDEPAKQLLCQGMVLADAFYYVGENGERNWVSPVDAIVERDEKGRIVKAKDAAGHELVYTGMSKMSKSKNNGIDPQVMVERYGADTVRLFMMFASPADMTLEWQESGVEGANRFLKRVWKLVYEHTAKGDVAALNVDALTENQKALRRDVHKTIAKVTDDIGRRQTFNTAIAAIMELMNKLAKAPTDGEQDRALMQEALLAVVRMLNPFTPHICFTLWQELKGEGDIDNAPWPVADEKAMVEDSTLVVVQVNGKVRAKITVPVDATEEQVRERAGQEHLVAKYLDGVTVRKVIYVPGKLLNLVVG
modifications: o-nitrobenzylcysteine aminoacyl-tRNA synthetase
oNBS incorporation efficiency compared to an oNBC amino acid (in words) [3]: twofold reduced efficiency
